# Laboratory results published in EP4356929A1, “ANTIFIBROTIC FORMULATION FOR OPHTHALMIC TREATMENT” (Universität Rostock, priority 2022, dated 2024).
# Test: physchem
# Type: physicochemical
# Conditions: aqueous gamma-cyclodextrin 200 mg/ml
# Method: This hydrogel can then be loaded with JM, which forms a host-guest complex with the yCD molecules Fig. 2 the amount of chlorine in various EPI crosslinked hydrogel samples was quantified. The EPI contains chlorine, but the final crosslinked hydrogel should not. Gels washed at 37°C in DI water were given either three 1-hour washes (short wash) or two 1-hour washes followed by an overnight wash with water or Ethanol. […] Fig. 3 the maximum solubility of Josamycin in aqueous solutions of various yCD concentrations was measured. Soluble JM was measured by HPLC. […] The amount of JM released was measured over time and expressed as a percent of the total JM initially loaded into the gel. Most of the JM was released within the first 96 hrs. […] On the left are molded and washed gels, which have been completely dried. On the right is a fully rehydrated gel which is almost completely transparent. […] The total drug loading was linearly related to the amount of josamycin in the loading solution.
# The first formulation developed is a solution of yCD and JM. Solutions of JM and yCD can be made up to 18.9 mg/ml JM with 200 mg/ml yCD. These solutions are formed by simply mixing the JM and yCD in water or PBS until dissolved. This liquid formulation can then be sterilized via syringe filter before use. The solution is suitable for application to the eye as an eye drop or injection during or after surgery. […]
structure (smiles),measurement,value
"CO[C@@H]1[C@@H](O[C@@H]2O[C@H](C)[C@@H](O[C@H]3C[C@@](C)(O)[C@@H](OC(=O)CC(C)C)[C@H](C)O3)[C@H](N(C)C)[C@H]2O)[C@@H](CC=O)C[C@@H](C)[C@@H](O)/C=C/C=C/C[C@@H](C)OC(=O)C[C@H]1OC(C)=O [JM, josamycin]",solubility,≤ 18.9 mg/mL
